One assay concerns drug-resistant bacteria. Conditions: cited from earlier work.
Assay [1] relates to gram-negative and gram-positive bacteria sensitive to the kanamycins. To be noted: cited from earlier work.
Assay [2] has as its system kanamycin-resistant strains. To be noted: strains phosphorylating the 3'-hydroxyl group of kanamycins; cited from earlier work.
Assay [3] deals with Escherichia coli JR66/W677. To be noted: strain adenylylating the 2"-hydroxyl group; cited from earlier work.
In assay [4] the test system is Staphylococcus aureus Smith. As to the kind of experiment: MIC, serial dilution on nutrient agar. The assay is classed as cell-based. Conditions: Staphylococcus aureus, 18 h, read-out: Minimum Inhibitory Concentrations.
The subject of assay [5] is Staphylococcus aureus FDA 209P. Kind of assay: MIC, serial dilution on nutrient agar. Format: cell-based. To be noted: Staphylococcus aureus, FDA209P, 18 h, read-out: Minimum Inhibitory Concentrations.
Assay [6] deals with Staphylococcus aureus Terejima. Kind of assay: MIC, serial dilution on nutrient agar. The assay is classed as cell-based. To be noted: Staphylococcus aureus, 18 h, read-out: Minimum Inhibitory Concentrations.
A further assay has as its system Sarcina lutea PCI 1001. Kind of assay: MIC, serial dilution on nutrient agar. To be noted: Micrococcus luteus, PCI1001, 18 h, read-out: Minimum Inhibitory Concentrations. Format: cell-based.
In another assay the test system is Bacillus anthracis. As to the kind of experiment: microbe, parasite or virus in culture. Format: cell-based. Conditions: 18 h, read-out: Minimum Inhibitory Concentrations.
For assay [7], the system named is Bacillus subtilis PCI 219. Kind of assay: MIC, serial dilution on nutrient agar. The assay is classed as cell-based. Conditions: Bacillus subtilis, PCI219, 18 h, read-out: Minimum Inhibitory Concentrations.
Assay [8] relates to Bacillus subtilis NRRL B-558. Kind of assay: MIC, serial dilution on nutrient agar. The assay is classed as cell-based. To be noted: Bacillus subtilis, NRRLB558, 18 h, read-out: Minimum Inhibitory Concentrations.
Assay [9] relates to Bacillus cereus ATCC 10702. As to the kind of experiment: MIC, serial dilution on nutrient agar. The assay is classed as cell-based. To be noted: Bacillus cereus, ATCC10702, 18 h, read-out: Minimum Inhibitory Concentrations.
Assay [10] has as its system Corynebacterium bovis 1810. As to the kind of experiment: MIC, serial dilution on nutrient agar. Format: cell-based. Conditions: Corynebacterium bovis, 1810, 18 h, read-out: Minimum Inhibitory Concentrations.
The test system of assay [11] is Mycobacterium smegmatis ATCC 607. Kind of assay: MIC, serial dilution on nutrient agar. Format: cell-based. Conditions: Mycolicibacterium smegmatis, ATCC607, 18 h, read-out: Minimum Inhibitory Concentrations.
Assay [12] relates to Shigella dysenteriae JS 11910. As to the kind of experiment: MIC, serial dilution on nutrient agar. The assay is classed as cell-based. To be noted: JS11910, 18 h, read-out: Minimum Inhibitory Concentrations.
Assay [13] deals with Escherichia coli K-12 ML 1630. Kind of assay: MIC, serial dilution on nutrient agar. Format: cell-based. Conditions: K12ML1630, 37°C, 18 hours, read-out: Minimum Inhibitory Concentrations. How it is done:
(§1) The minimum inhibitory concentrations (mcg/ml) of 1,2'-di-N-[(S)-4-amino-2-hydroxybutyryl]-kanamycin B (abbreviated as 1,2'-AHB-KMB), 1,2'-di-N-[(S)-4-amino-2-hydroxybutyryl]-3',4'-dideoxykanamycin B (abbreviated as 1,2'-AHB-DKB), 1,2'-di-N-DL-isoseryl-3',4'-dideoxykanamycin B (abbreviated as 1,2'-IS-DKB) and 1,2'-di-N-DL-isoseryl-kanamycin B (abbreviated as 1,2'-IS-KMB) against various microorganisms were determined according to serial dilution method using nutrient agar medium at 37°C, the estimation being effected after 18 hours incubation. For comparison, the minimum inhibitory concentrations of kanamycin B (abbreviated as KMB) and 3',4'-dideoxykanamycin B (abbreviated as DKB) were also determined in the same manner as mentioned above.

For assay [14], the system named is Shigella flexneri 4b JS 11811. Kind of assay: MIC, serial dilution on nutrient agar. Format: cell-based. Conditions: 4BJS11811, 37°C, 18 hours, read-out: Minimum Inhibitory Concentrations. How it is done:
as §1

For another assay, the system named is Shigella sonnei JS 11746. Kind of assay: MIC, serial dilution on nutrient agar. The assay is classed as cell-based. To be noted: JS11746, 37°C, 18 hours, read-out: Minimum Inhibitory Concentrations. How it is done:
as §1

A further assay concerns Salmonella typhosa T-63. Kind of assay: MIC, serial dilution on nutrient agar. The assay is classed as cell-based. Conditions: Salmonella enterica, 18 h, read-out: Minimum Inhibitory Concentrations.
In assay [15] the test system is Salmonella enteritidis 1891. Kind of assay: MIC, serial dilution on nutrient agar. The assay is classed as cell-based. To be noted: Salmonella enterica, ENTERITIDIS, 18 h, read-out: Minimum Inhibitory Concentrations.
In another assay the test system is Proteus vulgaris OX 19. Kind of assay: MIC, serial dilution on nutrient agar. The assay is classed as cell-based. To be noted: Proteus vulgaris, OX19, 18 h, read-out: Minimum Inhibitory Concentrations.
In assay [16] the test system is Klebsiella pneumoniae PCI 602. Kind of assay: MIC, serial dilution on nutrient agar. The assay is classed as cell-based. Conditions: Klebsiella pneumoniae, PCI602, 18 h, read-out: Minimum Inhibitory Concentrations.
For assay [17], the system named is Klebsiella pneumoniae 22 -3038. Kind of assay: MIC, serial dilution on nutrient agar. Conditions: Klebsiella pneumoniae, 223038, 18 h, read-out: Minimum Inhibitory Concentrations. The assay is classed as cell-based.
The subject of another assay is Escherichia coli NIHJ. As to the kind of experiment: MIC, serial dilution on nutrient agar. Format: cell-based. To be noted: Escherichia coli, 18 h, read-out: Minimum Inhibitory Concentrations.
The test system of the next assay is Escherichia coli K-12. As to the kind of experiment: MIC, serial dilution on nutrient agar. To be noted: Escherichia coli, K12, 18 h, read-out: Minimum Inhibitory Concentrations. The assay is classed as cell-based.
For assay [18], the system named is Escherichia coli K-12 ML 1629. As to the kind of experiment: MIC, serial dilution on nutrient agar. Format: cell-based. To be noted: Escherichia coli, K12ML1629, 18 h, read-out: Minimum Inhibitory Concentrations.
Assay [19] concerns Escherichia coli K-12 ML 1410. Kind of assay: MIC, serial dilution on nutrient agar. The assay is classed as cell-based. Conditions: Escherichia coli, K12ML1410, 18 h, read-out: Minimum Inhibitory Concentrations.
Assay [20] concerns Escherichia coli K-12 ML 1410 R81. As to the kind of experiment: MIC, serial dilution on nutrient agar. The assay is classed as cell-based. To be noted: 18 h, read-out: Minimum Inhibitory Concentrations.
The subject of assay [21] is Escherichia coli LA290 R55. As to the kind of experiment: MIC, serial dilution on nutrient agar. The assay is classed as cell-based. Conditions: LA290R55, 18 h, read-out: Minimum Inhibitory Concentrations.
The subject of assay [22] is Escherichia coli LA290 R56. As to the kind of experiment: MIC, serial dilution on nutrient agar. Format: cell-based. Conditions: LA290R56, 18 h, read-out: Minimum Inhibitory Concentrations.
Assay [23] deals with Escherichia coli LA290 R64. Kind of assay: MIC, serial dilution on nutrient agar. The assay is classed as cell-based. Conditions: LA290R64, 18 h, read-out: Minimum Inhibitory Concentrations.
The next assay relates to Escherichia coli W677. Kind of assay: MIC, serial dilution on nutrient agar. Format: cell-based. To be noted: Escherichia coli, W677, 18 h, read-out: Minimum Inhibitory Concentrations.
Assay [24] concerns Escherichia coli JR66/W677. As to the kind of experiment: MIC, serial dilution on nutrient agar. Format: cell-based. Conditions: Escherichia coli, JR66/W677, 18 h, read-out: Minimum Inhibitory Concentrations.
Assay [25] deals with Pseudomonas aeruginosa A3. As to the kind of experiment: MIC, serial dilution on nutrient agar. Format: cell-based. Conditions: Pseudomonas aeruginosa, A3, 18 h, read-out: Minimum Inhibitory Concentrations.
Assay [26] has as its system Pseudomonas aeruginosa No.12. As to the kind of experiment: MIC, serial dilution on nutrient agar. Format: cell-based. To be noted: Pseudomonas aeruginosa, NO.12, 18 h, read-out: Minimum Inhibitory Concentrations.
The test system of assay [27] is Pseudomonas aeruginosa TI-13. As to the kind of experiment: MIC, serial dilution on nutrient agar. Format: cell-based. To be noted: Pseudomonas aeruginosa, TI13, 18 h, read-out: Minimum Inhibitory Concentrations.
The subject of assay [28] is Pseudomonas aeruginosa GN315. As to the kind of experiment: MIC, serial dilution on nutrient agar. Format: cell-based. Conditions: Pseudomonas aeruginosa, GN315, 18 h, read-out: Minimum Inhibitory Concentrations.
The test system of assay [29] is Pseudomonas aeruginosa 99. Kind of assay: MIC, serial dilution on nutrient agar. Format: cell-based. To be noted: Pseudomonas aeruginosa, 99, 18 h, read-out: Minimum Inhibitory Concentrations.

Values after ≈ are worked out from the molar mass of the structure shown. Bounds are passed on as bounds.

In the case of `NCC(O)C(=O)N[C@@H]1C[C@H](N)[C@@H](O[C@H]2O[C@H](CN)CC[C@H]2N)[C@H](O)[C@H]1O[C@H]1O[C@H](CO)[C@@H](O)[C@H](N)[C@H]1O` (stereo partly drawn) [1-N-isoseryl-3',4'-dideoxykanamycin B], in the assay with drug-resistant bacteria, the “antibacterial activity against the drug-resistant bacteria” value (“antibacterial activity” for short) is on record as “effective”. In addition, the “effectiveness against bacteria sensitive to the kanamycins” value (shortened to “effectiveness against bacteria sensitive”) in assay [1] is recorded as “effective”.
Regarding `NC[C@H]1O[C@H](O[C@H]2[C@H](O)[C@@H](O[C@H]3O[C@H](CO)[C@@H](O)[C@H](N)[C@H]3O)[C@H](N)C[C@@H]2N)[C@H](O)C[C@@H]1O` [3'-deoxykanamycin], the “effectiveness against kanamycin-resistant strains” value in assay [2] is recorded as “actually effective”. Besides, the “activity against kanamycin-resistant strains such as Escherichia coli JR66/W677” value in assay [3] is “practically inactive”.
For `NCC(O)C(=O)N[C@@H]1C[C@H](N)[C@@H](O[C@H]2O[C@H](CN)[C@@H](O)[C@H](O)[C@H]2N)[C@H](O)[C@H]1O[C@H]1O[C@H](CO)[C@@H](O)[C@H](N)[C@H]1O` (stereo partly drawn) [1N-isoserylkanamycinB], in the assay with drug-resistant bacteria, the “antibacterial activity” value is recorded as “effective”. In [1], the “effectiveness against bacteria sensitive” value is given as “effective”.
For the molecule `NCC(O)C(=O)N[C@@H]1C[C@H](N)[C@@H](O[C@H]2O[C@H](CN)[C@@H](O)[C@H](O)[C@H]2O)[C@H](O)[C@H]1O[C@H]1O[C@H](CO)[C@@H](O)[C@H](N)[C@H]1O` (stereo partly drawn) [1-N-isoserylkanamycin], the “antibacterial activity” value in the assay on drug-resistant bacteria is on record as “effective”. Further, the “effectiveness against bacteria sensitive” value in assay [1] is reported as “effective”.
Take `NC[C@H]1O[C@H](O[C@H]2[C@H](O)[C@@H](O[C@H]3O[C@H](CO)[C@@H](O)[C@H](N)[C@H]3O)[C@H](N)C[C@@H]2N)[C@H](N)[C@@H](O)[C@@H]1O` [KMB, kanamycin B]: the MIC in [4] is 0.39 µg/mL (≈ 0.807 µM); in assay [5], below 0.2 µg/mL; in assay [6], below 0.2 µg/mL; in the assay on Sarcina lutea PCI 1001, 1.56 µg/mL (≈ 3.23 µM); with Bacillus anthracis, below 0.2 µg/mL; in assay [7] it was below 0.2 µg/mL. For the same molecule, the MIC in assay [8] was below 0.2 µg/mL; in assay [9], 0.78 µg/mL (≈ 1.61 µM); in assay [10], 1.56 µg/mL (≈ 3.23 µM); in assay [11] it was 0.78 µg/mL (≈ 1.61 µM); in assay [12] it was 3.13 µg/mL (≈ 6.47 µM); in assay [13], above 100 µg/mL. Besides, the MIC is 3.13 µg/mL (≈ 6.47 µM) in assay [14]; 1.56 µg/mL (≈ 3.23 µM) with Shigella sonnei JS 11746; 0.2 µg/mL (≈ 0.414 µM) in the assay with Salmonella typhosa T-63; 1.56 µg/mL (≈ 3.23 µM) in assay [15]; 0.78 µg/mL (≈ 1.61 µM) with Proteus vulgaris OX 19; 0.78 µg/mL (≈ 1.61 µM) in [16]. Further, the MIC was above 100 µg/mL in [17]; 0.78 µg/mL (≈ 1.61 µM) in the assay on Escherichia coli NIHJ; 0.78 µg/mL (≈ 1.61 µM) in the assay with Escherichia coli K-12; above 100 µg/mL in assay [18]; 0.78 µg/mL (≈ 1.61 µM) in assay [19]; above 100 µg/mL in [20]. The MIC is 12.5 µg/mL (≈ 25.9 µM) in assay [21]; 3.13 µg/mL (≈ 6.47 µM) in assay [22]; 3.13 µg/mL (≈ 6.47 µM) in assay [23]; 0.39 µg/mL (≈ 0.807 µM) in the assay on Escherichia coli W677; above 100 µg/mL in [24]; 50 µg/mL (≈ 103 µM) in [25]. For the same molecule, the MIC in assay [26] was 12.5 µg/mL (≈ 25.9 µM); in [27], 100 µg/mL (≈ 207 µM); in assay [28], above 100 µg/mL; in assay [29] it was above 100 µg/mL.

The values are drawn from patent publication US3940382A, “1,2'-Di-N-substituted kanamycin B compounds” (Zaidan Hojin Biseibutsu Kagaku Kenkyu Kai, priority 1973, dated 1976).
